Patent US20110217265A1, “Screening for Inhibitors of HCV Amphipathic Helix (AH) Function” (priority 2008, published 2011)

Tests used:
2a HCV RNA replicon = 2a HCV RNA replicon assay (FL-J6/JFH-5'C19Rluc2AUbi, luciferase); format: cell-based, Hepatitis C Virus genotype 2a; settings: full-length J6/JFH Luc, luciferase at 72 hr of treatment
Summary of the method: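 Huh7.5 cells electroporated with in vitro-transcribed FL-J6/JFH-5′C19Rluc2AUbi RNA (full-length genotype 2a, Renilla luciferase) and treated from 24 h, with compound refreshed daily for 72 h. Replication measured as Renilla luminescence, normalized to untreated or matched-DMSO samples. Alamar Blue fluorescence on the same wells assessed cytotoxicity.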

genotype 2a 4BAH2 = genotype 2a 4BAH2 (Hepatitis C virus genotype 2a, UniProt Q99IB8); assay: DLS assay of 4BAH2-induced POPC lipid vesicle aggregation, genotype 2a peptide; format: biochemical; design: purchased Anaspec Corporation (San Jose, Calif., USA); host or cells: chemical synthesis; settings: POPC vesicles
Chain of genotype 2a 4BAH2 (Q99IB8 1758-1780): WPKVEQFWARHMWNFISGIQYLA
Protocol: Small Unilamellar Vesicle Preparation. Vesicles of 1-palmitoyl-2-oleoyl-sn-glycero-3-phosphocholine (POPC) (Avanti Polar Lipids, Alabaster, Ala., USA) with well-defined size distributions were prepared by the extrusion method. Throughout the experiments, we used a phosphate buffered saline (PBS) buffer (10 mM, pH 7.5 and 150 mM NaCl) in […] MilliQ water (Millipore, Oregon, USA). Extruded vesicles (referred to simply as vesicles) were prepared in the following manner. Lipid films were prepared by first drying the as-supplied lipids dissolved in chloroform under a gentle stream of nitrogen at room temperature. Then the resulting lipid film was stored under vacuum for at least 5 hr in order to remove residual chloroform. Vesicles were prepared by first swelling the lipid film in aqueous solution then vortexing periodically for 5 min. […]
Dynamic Light Scattering. Dynamic light scattering (DLS) was performed using a doubled, Nd:YAG laser (model 532 DPSS, Coherent Laser Group, Santa Clara, Calif.) with a wavelength, λ, of […] and a Brookhaven digital autocorrelator, and analyzed by digital autocorrelator software (Brookhaven Instruments Corporation, New York, USA). […] DLS results were analyzed to give an intensity-weighted size distribution using a discrete Laplace inversion routine. […]

4BAH2 peptide = biological target: T1, 4BAH2 peptide (Hepatitis C virus genotype 1b, UniProt Q9WMX2); assay: AFM of 4BAH2 peptide oligomerization on SiOx substrate; format: biochemical
T1 construct: purchased Anaspec Corporation (San Jose, Calif., USA); host or cells: chemical synthesis
T1 sequence (Q9WMX2 1754-1776): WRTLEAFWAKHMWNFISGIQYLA
Protocol: Atomic Force Microscopy. The AFM experiments were carried out on a XE-Bio (Park Systems Suwon, Korea) in contact and non-contact modes. Rectangular-shaped silicon cantilevers were used (SICON for contact mode and ACT for non-contact mode, AppNano, Santa Clara, Calif.). […] All measurements were performed in a PBS buffer. Images in fluid were obtained both in contact mode with an imaging force of less than 200 pN and in noncontact mode. However, images presented in this manuscript were only obtained in non-contact mode in fluid. The scan line speed was optimized between 0.3 Hz to 1 Hz with a pixel number of 256×256, depending on the scan size. Images were recorded in height, amplitude, phase, and error modes. All measurements were done on the height images. All images shown were subjected to a first order plane-fitting procedure to compensate for sample tilt. The cross-sectional analysis was carried out on images subjected only to a first order plane-fitting procedure. Topographical and grain analyses were performed using the software XEI 1.7.1 supplied by Park Systems (Suwon, Korea).

## CC(C)CN(C)c1nc(N)c(C(=O)NC(=N)N)nc1Cl [C4, 3-amino-N-carbamimidoyl-6-chloro-5-(isobutyl(methyl)amino)pyrazine-2-carboxamide]
2a HCV RNA replicon
  Inhibition of HCV genotype 2a viral genome replication: exhibited inhibition
Genotype 2a 4BAH2
  Inhibition of genotype 2a 4BAH2-induced vesicle aggregation (DLS): essentially abrogated
4BAH2 peptide
  Effect on 4BAH2 peptide aggregation / self-oligomerization (AFM): inhibit peptide aggregation
